{
  "source": "patent US11291661B2",
  "about": "“Pharmaceutical composition” (priority 2019, dated 2022)",
  "key": {"[1]": {"assay": "Absorption, distribution, metabolism and excretion after a single 1-mg oral dose of [14C]Compound (A)", "format": "in vivo, human", "from_the_text": "Primary phase 1 oxidative pathways included:\n1) oxidative O-dealkylation; 2) oxidation at the phenyl cyclopropyl isoxazole moiety; 3) oxidation at the benzothiazole and fused ring structure. Metabolites containing multiple oxidative modifications and/or glucuronidation to oxidative products were also observed in human excreta."}, "[2]": {"assay": "Biopharmaceutical classification / solubility statement", "format": "physicochemical"}},
  "data": [
    {"smiles": "O=C(O)c1cc(F)c2nc(N3C4CC[C@H]3C[C@@H](OCc3c(-c5ccccc5OC(F)(F)F)noc3C3CC3)C4)sc2c1", "note": "[Compound (A), 2-[(1R,3r,5S)-3-({5-cyclopropyl-3-[2-(trifluoromethoxy)phenyl]-1,2-oxazol-4-yl}methoxy)-8-azabicyclo[3.2.1]octan-8-yl]-4-fluoro-1,3-benzothiazole-6-carboxylic acid]", "values": [
      {"measurement": "Faecal excretion of related radioactivity", "setting": "[1]", "result": "~65 % of the total dose"},
      {"measurement": "Unchanged Compound (A) in the plasma", "setting": "[1]", "result": "~92 % of total radioactivity"},
      {"measurement": "urinary excretion of related radioactivity", "setting": "[1]", "result": "~29 % of the total dose"},
      {"measurement": "Mass balance, administered dose recovered in excreta", "setting": "[1]; 312 hours collection period", "result": "approximately 94%"},
      {"measurement": "half-life", "setting": "[1]; human, plasma, read-out: half time (t1/2) in plasma (converted)", "result": 13.5, "unit": "h"},
      {"measurement": "Cmax", "setting": "[1]; human, plasma, read-out: maximum concentration (Cmax) of parent in plasma", "result": 33.5, "unit": "ng/mL"},
      {"measurement": "Tmax", "setting": "[1]; human, plasma, read-out: median Tmax", "result": 4, "unit": "h"},
      {"measurement": "water solubility", "setting": "[2]", "result": "low water solubility"},
      {"measurement": "biopharmaceutical classification system class", "setting": "[2]; poorly soluble and poorly permeable compound", "result": "class IV"}
    ]}
  ]
}
